Literature values as cited in US8555875B2, “Inhalation devices and related methods for administration of sedative hypnotic compounds” (Map Pharmaceuticals, Inc., priority 2008, dated 2013).

What was measured:
[1] = in vivo
[2] = in vivo; remark: listed apart in the source
[3] = test system: melatonin receptor MT1/MT2; conditions: metabolite MII versus ramelteon

Compound	Half Life [1]	Duration of Action [2]	mean functional activity, times lower potency than ramelteon [3]
CN1CCN(C(=O)OC2c3nccnc3C(=O)N2c2ccc(Cl)cn2)CC1 (single isomer, unassigned) [Eszopiclone, 6-(5-chloro-2-pyridyl)-5[(4-methyl-1-piperazinyl)carbonyloxy]-7-oxo-6,7-di hydro-5H-pyrrolo[3,4-b]pyrazine]	6 h	8 h	
Cc1nnc2n1-c1ccc(Cl)cc1C(c1ccccc1)=NC2 [Alprazolam]	9 to 14 h	<6 h	
CNC1=Nc2ccc(Cl)cc2C(c2ccccc2)=[N+]([O-])C1 [Chlordiazepoxide]	7 to 13 h		
O=C1CN=C(c2ccccc2Cl)c2cc([N+](=O)[O-])ccc2N1 [Clonazepam]	18 to 28 h	24 to 28 h	
CN1C(=O)CN=C(c2ccccc2)c2cc(Cl)ccc21 [Diazepam]		24 to 28 h	
CCN(CC)CCN1C(=O)CN=C(c2ccccc2F)c2cc(Cl)ccc21 [Flurazepam]	50 to 100 h	24 to 28 h	
O=C1Nc2ccc(Cl)cc2C(c2ccccc2Cl)=NC1O (centres unmarked) [Lorazepam]	9 to 19 h	12 to 18 h	
CN1C(=O)C(O)N=C(c2ccccc2Cl)c2cc(Cl)ccc21 (centres unmarked) [Lormetazepam]	10 h	12 to 18 h	
CC(O)C(=O)NCCC1CCc2ccc3c(c21)CCO3 (centres unmarked) [MII]			21 times
Cc1ncc2n1-c1ccc(Cl)cc1C(c1ccccc1F)=NC2 [Midazolam]	1.3 to 2.5 h	4 h	
O=C1CN=C(c2ccccc2)c2cc([N+](=O)[O-])ccc2N1 [Nitrazepam]	28 h	24 h	
CN1C(=O)C(O)N=C(c2ccccc2)c2cc(Cl)ccc21 (centres unmarked) [Temazepam]		12 to 18 h	
Cc1nnc2n1-c1ccc(Cl)cc1C(c1ccccc1Cl)=NC2 [Triazolam]	2 to 4 h	<6 h	
Cc1ccc(-c2nc3ccc(C)cn3c2CC(=O)N(C)C)cc1 [Zolpidem]		<4 h	
